Legend:
EGFR phosphorylation = tested on: EGFR phosphorylation; parameters: method as in Torrance et al, 2000; details: xenograft model; ref Torrance et al, 2000; cited from earlier work
[1] = parameters: method as in Torrance et al, 2000; details: ref Torrance et al, 2000; cited from earlier work
[2] = tested on: gefitinib-resistant kinases; parameters: method as in Carter et al, 2005; Kwak et al, 2005; details: preclinical studies, ref Carter et al, 2005, Kwak et al; cited from earlier work
[3] = Phase I safety, DLT and MTD, OD 14 days on / 14 days off; assay type: in vivo
Method: Tablets were taken 1 h before breakfast. A cycle was defined as 14 days on treatment followed by 14 days off medication. […] The starting dose corresponded with one-fifth of the toxic dose low in rats, the most sensitive species. The dose for successive cohorts was doubled until observation of drug-related AE grade ⩾2 according to common toxicity criteria v3.0 in one or more patients in the first cycle. Thereafter escalation steps were ⩽50%. Should DLT be observed in one out of six patients and dose escalation continued, escalation steps were ⩽35%. Initially, three patients were treated per dose level. If one patient experienced drug-related DLT, three additional patients were treated. When no further patient experienced DLT, the dose was escalated. When ⩾2/6 patients experienced DLT, three additional patients were treated 1 dose tier below unless six had already been treated there.
Maximum tolerated dose was defined as the highest dose with ⩽1/6 patients experiencing DLT during cycle 1. Dose-limiting toxicity was defined as grade 3 or 4 nonhaematological toxicity except untreated nausea, vomiting, or diarrhoea; grade 4 haematological toxicity; grade 3 diarrhoea, nausea, or vomiting despite supportive care; need for loperamide for ⩾7 days to treat or prevent grade ⩾2 diarrhoea; need for continuous administration of 5HT-3 antagonists or dexamethasone to treat or prevent grade ⩾2 nausea or vomiting; occurrence of grade ⩾2 cardiac left ventricular function or renal toxicity. In the absence of DLT or disease progression, patients received six cycles and were allowed to continue in an extension protocol. Intrapatient dose escalation was not allowed. The study was approved by local Ethics Committees, and all patients provided written informed consent.
(§1) Prior to therapy, medical history taking and physical examination were performed. A complete blood cell count (CBC), white blood cell (WBC) differential and serum biochemistry were performed, as were urinalysis, electrocardiogram, MUGA scanning and, chest X-ray. Weekly evaluations during cycles 1 and 2 and every other week thereafter included physical examination, AE assessment, CBC, WBC differential and serum chemistry including renal function. Tumour measurements and MUGA scanning were performed every other cycle. Response was assessed using RECIST ([Therasse et al, 2000]).

epidermal keratinocytes = assay: Pharmacodynamics in paired skin biopsies (immunohistochemistry); assay type: in vivo, human; details: on therapy day 14 cycle 1, all dose levels pooled, 36 paired biopsies; pretreatment 14.0±4.5%; P<0.0001
advanced solid tumours [4] = assay: Antitumour activity (RECIST); assay type: in vivo, human
Method: as §1

[5] = tested on: A431, MDA-MB-453, NCI-N87 gastric and SKOV-3 ovarian xenografts; parameters: method as in Boehringer-Ingelheim, data on file; details: oral, ref Boehringer-Ingelheim, data on file, cited from earlier work
advanced solid tumours [6] = details: cited from earlier work
[7] = molecular target: vascular endothelial growth factor 2; details: at concentrations 100- to 1000-fold higher; ref Boehringer-Ingelheim, data on file; cited from earlier work
C-SRC = details: at concentrations 100- to 1000-fold higher; ref Boehringer-Ingelheim, data on file; cited from earlier work
[8] = minipig, in vivo; cited from earlier work
[9] = Plasma pharmacokinetics in patients (HPLC-MS/MS, noncompartmental); details: for CL/F / Vd/F / half-life / AUC(0-t) / Cmax / Tmax: human, plasma, oral

In the case of CCOc1cc2ncc(C#N)c(Nc3ccc(F)c(Cl)c3)c2cc1NC(=O)/C=C/CN(C)C [EKB-569], the “duration of inhibition of EGFR phosphorylation” value (EGFR phosphorylation) is given as over 24 h, the plasma half-life [1] is given as 2 h and the “inhibition of gefitinib-resistant kinases” value [2] is given as “inhibition”.
For CCOc1cc2ncc(C#N)c(Nc3ccc(OCc4ccccn4)c(Cl)c3)c2cc1NC(=O)/C=C/CN(C)C [HKI-272], the “inhibition of gefitinib-resistant kinases” value [2] is listed as “inhibition”.
For C=CC(=O)Nc1cc2c(Nc3ccc(F)c(Cl)c3)ncnc2cc1OCCCN1CCOCC1 [CI-1033], the “inhibition of gefitinib-resistant kinases” value [2] is given as “inhibition”.
In the case of CN(C)C/C=C/C(=O)Nc1cc2c(Nc3ccc(F)c(Cl)c3)ncnc2cc1O[C@H]1CCOC1 [BIBW 2992], the Maximum tolerated dose ([3]; OD 14 days on, 14 days off) is reported as 70 mg, the “recommended dose (phase 2)” value ([3]; OD, 14-day on, 14-day off schedule) is reported as 70 mg and the incidence of diarrhoea ([3]; human, in vivo) is reported as 84%. The “incidence of gastrointestinal AE” value ([3]; human, in vivo) was 92%, the onset of diarrhoea ([3]; human, in vivo) was at most 7 days and the “overall incidence of rash, acne and dry skin” value ([3]; human, in vivo) was 95%. For the same compound, the “patients with grade 1 anemia” value ([3]; human, in vivo) was 6 patients, the “patients with mild fatigue” value ([3]; human, in vivo) was 24 patients and the “patients with mild gastrointestinal AE (diarrhoea, nausea, vomiting)” value ([3]; human, in vivo) was 35 patients. For the same compound, the “patients with self-limiting epistaxis” value ([3]; human, in vivo) was 20 patients, the “DLT observed in cycle 1, initial 70 mg cohort” value ([3]; in vivo) was “one” and the “patients with LVEF reduction” value ([3]; in vivo) was “Two”. For the same compound, the “patients with grade 1 thrombocytopaenia” value ([3]; in vivo) was “two”, the “patients with grade 2 ALT” value ([3]; in vivo) was “three” and the “patients with grade 2 AST” value ([3]; in vivo) was “four”. For the same compound, the “patients with grade 2 alkaline phosphatase” value ([3]; in vivo) was “five”, the “patients with grade 2 bilirubin” value ([3]; in vivo) was “two” and the “percentage Ki-67-positive cells (means±s.d.)” value (epidermal keratinocytes) was 7.9±4.5%. The objective response (advanced solid tumours [4]; 38 patients, 10–100 mg) was “No partial or complete responses”, the “patients with minor tumour regressions” value (advanced solid tumours [4]; all treated at doses of ⩾45 mg) was “Eight” and the “median number of cycles in patients with stable disease” value (advanced solid tumours [4]; patients with stable disease ⩾4 cycles) was 6 (range 5–9) cycles. For the same compound, the “patients with stable disease lasting ⩾4 cycles” value (advanced solid tumours [4]; various tumour types) was “seven”, the tumour regression ([5]; mice with A431, MDA-MB-453, NCI-N87 gastric, SKOV-3 ovarian models) was “induced tumour regression” and the “plasma concentrations at which tumour regression was induced” value ([5]; xenograft models in mice) was 80 to 280 nM. For the same compound, the “patients with partial tumour responses” value (advanced solid tumours [6]; adenocarcinoma of the lung, ref Shaw et al, 2006) was “two”, the “LVEF changes in additional trials” value (advanced solid tumours [6]; preliminary data from ⩾120 patients, ref Agus et al, 2006, Shaw et al) was “not indicated significant LVEF changes” and the kinase inhibition [7] was “not inhibited”. For the same compound, the kinase inhibition (C-SRC) was “not inhibited”, the “organs in which toxicity occurred” value [8] was “gastrointestinal tract” and the “time to reach steady state” value ([9]; OD dosing) was at most 8 days. It also gave a CL/F [9] of 383 to 1390 mL/min, a Vd/F [9] of 1250 to 4760 L and a half-life [9] of 28 to 43 h. The AUC(0-t) ([9]; 10 mg) was 199 ng·h/mL, the CL/F ([9]; 10 mg) was 839 mL/min and the Cmax ([9]; 10 mg) was 14.1 ng/mL. It also gave a Tmax ([9]; 10 mg) of 2.98 h, a Vd/F ([9]; 10 mg) of 2610 L and a half-life ([9]; 10 mg) of 35.9 h. It also gave an AUC(0-t) ([9]; 20 mg) of 241 ng·h/mL, a CL/F ([9]; 20 mg) of 1390 mL/min and a Cmax ([9]; 20 mg) of 16.2 ng/mL. For the same compound, the Tmax ([9]; 20 mg) was 4 h, the Vd/F ([9]; 20 mg) was 4760 L and the half-life ([9]; 20 mg) was 39.7 h. For the same compound, the AUC(0-t) ([9]; 30 mg) was 1310 ng·h/mL, the CL/F ([9]; 30 mg) was 383 mL/min and the Cmax ([9]; 30 mg) was 111 ng/mL. The Tmax ([9]; 30 mg) was 0.95 h, the Vd/F ([9]; 30 mg) was 1250 L and the half-life ([9]; 30 mg) was 37.7 h. The AUC(0-t) ([9]; 45 mg) was 840 ng·h/mL, the CL/F ([9]; 45 mg) was 893 mL/min and the Cmax ([9]; 45 mg) was 68.4 ng/mL. It also gave a Tmax ([9]; 45 mg) of 3 h, a Vd/F ([9]; 45 mg) of 3350 L and a half-life ([9]; 45 mg) of 43.4 h. The AUC(0-t) ([9]; 70 mg) was 2620 ng·h/mL, the CL/F ([9]; 70 mg) was 445 mL/min and the Cmax ([9]; 70 mg) was 180 ng/mL. The Tmax ([9]; 70 mg) was 2 h, the Vd/F ([9]; 70 mg) was 1530 L and the half-life ([9]; 70 mg) was 39.6 h. The AUC(0-t) ([9]; 85 mg) was 2340 ng·h/mL, the CL/F ([9]; 85 mg) was 604 mL/min and the Cmax ([9]; 85 mg) was 163 ng/mL. For the same compound, the Tmax ([9]; 85 mg) was 2 h, the Vd/F ([9]; 85 mg) was 1610 L and the half-life ([9]; 85 mg) was 30.8 h. The AUC(0-t) ([9]; 100 mg) was 2750 ng·h/mL, the CL/F ([9]; 100 mg) was 606 mL/min and the Cmax ([9]; 100 mg) was 234 ng/mL. It also gave a Tmax ([9]; 100 mg) of 1 h, a Vd/F ([9]; 100 mg) of 1500 L and a half-life ([9]; 100 mg) of 28.6 h.

— article PMC2359721 (British Journal of Cancer, 2007)
